These results are taken from ChEMBL document CHEMBL1151108, “Plant antimutagenic agents, 1. General bioassay and isolation procedures” (J Nat Prod, 1988).

In series [1] the test system is Salmonella typhimurium. The experiment in a line: Toxicity in Salmonella Typhimurium TA98 at 300 ug/plate in presence of liver S9 fraction by Ames test. Type of series: organism-based. Particulars: salmonella enterica subsp. enterica serovar typhimurium. (In the Ames test, an excess of revertant colonies over the control signals mutagenicity.)
Series [2] concerns Salmonella typhimurium. In words: Toxicity in Salmonella Typhimurium TA98 at 150 ug/plate in presence of liver S9 fraction by Ames test. Type of series: organism-based. Particulars: salmonella enterica subsp. enterica serovar typhimurium.

Regarding `C=C1CCC[C@]2(C)C[C@H]3OC(=O)[C@@H](C)[C@H]3C[C@@H]12` [DIHYDROISOALANTOLACTONE], the Activity entry with Salmonella typhimurium [1] and in the series on Salmonella typhimurium [2] was “Non-toxic” in each case.

For `C=C1C(=O)O[C@@H]2C[C@@]3(C)CCCC(=C)[C@@H]3C[C@H]12` [ISOALANTOLACTONE], the Activity entry in the series on Salmonella typhimurium [1] and in the series with Salmonella typhimurium [2] was “Toxic” throughout.
